Here are results for one molecule from publication PMC3347531, “Mutation of Residue βF71 of Escherichia coli Penicillin Acylase Results in Enhanced Enantioselectivity and Improved Catalytic Properties” (Acta Naturae, 2009).

The structures appear in SMILES notation.

In the experiment the target is T1, penicillin acylase (PA) from Escherichia coli (Escherichia coli, UniProt P06875).
T1 construct: gene pac; mature alpha/beta heterodimer processed from one precursor; recombinant from plasmid pEC in E. coli, purified
T1 sequence (P06875 27-235): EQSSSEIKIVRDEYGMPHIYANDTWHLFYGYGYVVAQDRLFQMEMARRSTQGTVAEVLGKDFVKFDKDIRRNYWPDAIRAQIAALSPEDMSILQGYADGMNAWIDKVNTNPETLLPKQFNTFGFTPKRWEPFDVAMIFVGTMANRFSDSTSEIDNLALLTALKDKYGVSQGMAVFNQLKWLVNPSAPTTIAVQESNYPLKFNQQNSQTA
T1 sequence (P06875 290-846): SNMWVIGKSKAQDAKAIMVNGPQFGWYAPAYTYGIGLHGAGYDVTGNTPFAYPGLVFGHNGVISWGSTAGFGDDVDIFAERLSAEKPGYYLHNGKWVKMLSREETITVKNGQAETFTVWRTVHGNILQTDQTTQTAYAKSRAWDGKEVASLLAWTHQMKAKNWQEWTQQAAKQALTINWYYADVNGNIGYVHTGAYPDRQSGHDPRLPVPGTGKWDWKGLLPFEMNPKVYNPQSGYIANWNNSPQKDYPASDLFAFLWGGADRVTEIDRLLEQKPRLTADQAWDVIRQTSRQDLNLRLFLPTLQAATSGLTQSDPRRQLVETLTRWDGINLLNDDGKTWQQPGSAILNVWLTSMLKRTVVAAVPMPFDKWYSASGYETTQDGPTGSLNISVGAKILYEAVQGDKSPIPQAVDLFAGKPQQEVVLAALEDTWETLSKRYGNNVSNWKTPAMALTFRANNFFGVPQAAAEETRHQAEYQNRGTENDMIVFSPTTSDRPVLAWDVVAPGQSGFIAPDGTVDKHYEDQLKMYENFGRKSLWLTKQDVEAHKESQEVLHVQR
Put plainly: initial rate hydrolysis, enantioselectivity from kcat/Km ratio. Type of experiment: biochemical.

`O=C(Cc1ccccc1)N[C@H](C(=O)O)c1ccccc1` [N-phenylacetyl-L-phenylglycine]: the “initial rate hydrolysis, enantioselectivity from kcat/Km ratio” value was “WT PA exhibits already a very good chiral discrimination of N-phenylacetyl-phenylglycine enantiomers”.
